Tests used:
blackgrass [1] = experiment: Test A preemergence; assay type: in vivo, Alopecurus myosuroides
Procedure, shortened: (§1)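 Weeds and crops in loam–sand blend were sprayed preemergence onto soil or postemergence at 2–10 cm (one- to two-leaf stage). Test chemicals were in a non-phytotoxic solvent with surfactant. After 10 days in the greenhouse, injury was rated visually against untreated controls on a 0 (no effect) to 100 (complete control) scale.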

corn [2] = experiment: Test A preemergence; assay type: in vivo, Zea mays
Procedure, shortened: as §1

foxtail, giant [3] = experiment: Test A preemergence; assay type: in vivo, Setaria faberi
Procedure, shortened: as §1

goosegrass [4] = experiment: Test A preemergence; assay type: in vivo, Eleusine indica
Procedure, shortened: as §1

kochia [5] = experiment: Test A preemergence; assay type: in vivo, Bassia scoparia
Procedure, shortened: as §1

oat, wild [6] = experiment: Test A preemergence; assay type: in vivo, Avena fatua
Procedure, shortened: as §1

pigweed, palmer [7] = experiment: Test A preemergence; assay type: in vivo, Amaranthus palmeri
Procedure, shortened: as §1

ragweed [8] = experiment: Test A preemergence; assay type: in vivo, Ambrosia artemisiifolia
Procedure, shortened: as §1

ryegrass, Italian [9] = experiment: Test A preemergence; assay type: in vivo, Lolium multiflorum
Procedure, shortened: as §1

soybean [10] = experiment: Test A preemergence; assay type: in vivo, Glycine max
Procedure, shortened: as §1

wheat [11] = experiment: Test A preemergence; assay type: in vivo, Triticum aestivum
Procedure, shortened: as §1

blackgrass [12] = experiment: Test A postemergence; assay type: in vivo, Alopecurus myosuroides; settings: postemergence, 10 days
Procedure, shortened: as §1

corn [13] = experiment: Test A postemergence; assay type: in vivo, Zea mays; settings: postemergence, 10 days
Procedure, shortened: as §1

foxtail, giant [14] = experiment: Test A postemergence; assay type: in vivo, Setaria faberi; settings: postemergence, 10 days
Procedure, shortened: as §1

goosegrass [15] = experiment: Test A postemergence; assay type: in vivo, Eleusine indica; settings: postemergence, 10 days
Procedure, shortened: as §1

kochia [16] = experiment: Test A postemergence; assay type: in vivo, Bassia scoparia; settings: postemergence, 10 days
Procedure, shortened: as §1

oat, wild [17] = experiment: Test A postemergence; assay type: in vivo, Avena fatua; settings: postemergence, 10 days
Procedure, shortened: as §1

pigweed, palmer [18] = experiment: Test A postemergence; assay type: in vivo, Amaranthus palmeri; settings: postemergence, 10 days
Procedure, shortened: as §1

ragweed [19] = experiment: Test A postemergence; assay type: in vivo, Ambrosia artemisiifolia; settings: postemergence, 10 days
Procedure, shortened: as §1

ryegrass, Italian [20] = experiment: Test A postemergence; assay type: in vivo, Lolium multiflorum; settings: postemergence, 10 days
Procedure, shortened: as §1

soybean [21] = experiment: Test A postemergence; assay type: in vivo, Glycine max; settings: postemergence, 10 days
Procedure, shortened: as §1

wheat [22] = experiment: Test A postemergence; assay type: in vivo, Triticum aestivum; settings: postemergence, 10 days
Procedure, shortened: as §1

galium = experiment: Test A postemergence; assay type: in vivo, Galium aparine; settings: postemergence, 10 days
Procedure, shortened: as §1

horseweed = experiment: Test A postemergence; assay type: in vivo, Erigeron canadensis; settings: postemergence, 10 days
Procedure, shortened: as §1

barnyardgrass = experiment: Test B flooded paddy test; assay type: in vivo, Echinochloa crus-galli; settings: 250 g ai/ha, Flood, 13 days, 0 to 100 scale (0 no effect, 100 complete control)
Procedure, shortened: (§2)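 Each species was raised to the 2-leaf stage. At treatment, each pot received floodwater 3 cm deep, with the chemical delivered into the water. Greenhouse holding followed for 13 days, then percent control was estimated visually versus untreated pots.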

ducksalad = experiment: Test B flooded paddy test; assay type: in vivo, Heteranthera limosa; settings: 250 g ai/ha, Flood, 13 days, 0 to 100 scale (0 no effect, 100 complete control)
Procedure, shortened: as §2

rice = experiment: Test B flooded paddy test; assay type: in vivo, Oryza sativa; settings: 250 g ai/ha, Flood, 13 days, 0 to 100 scale (0 no effect, 100 complete control)
Procedure, shortened: as §2

sedge, umbrella = experiment: Test B flooded paddy test; assay type: in vivo, Cyperus difformis; settings: 250 g ai/ha, Flood, 13 days, 0 to 100 scale (0 no effect, 100 complete control)
Procedure, shortened: as §2

[23] = 125 g ai/ha, visual injury after 10 days, 0 to 100 scale, 0 is no effect, 100 is complete control
[24] = 500 g ai/ha, 0 to 100 scale (0 no effect, 100 complete control), 10 days
[25] = 125 g ai/ha, 0 to 100 scale, 0 no effect, 100 complete control
[26] = 500 g ai/ha, visual injury, 0 to 100 scale (0 no effect, 100 complete control)

## CCc1ccc(-n2cnc(C3CCC3)n2)cc1C(=O)N1C[C@H](C)Oc2c(Cl)cccc21 [Compound 104]
Blackgrass [1]; [23]
  Plant response rating, Blackgrass: 30
Blackgrass [1]; [24]
  Plant response rating, Blackgrass: 40
Corn [2]; [23]
  Plant response rating, Corn: 0
Corn [2]; [24]
  Plant response rating, Corn: 0
foxtail, giant [3]; [23]
  Plant response rating, Foxtail, Giant: 100
foxtail, giant [3]; [24]
  Plant response rating, Foxtail, Giant: 100
Goosegrass [4]; [23]
  Plant response rating, Goosegrass: 100
Goosegrass [4]; [24]
  Plant response rating, Goosegrass: 100
Kochia [5]; [23]
  Plant response rating, Kochia: 50
Kochia [5]; [24]
  Plant response rating, Kochia: 100
oat, wild [6]; [23]
  Plant response rating, Oat, Wild: 0
oat, wild [6]; [24]
  Plant response rating, Oat, Wild: 70
pigweed, palmer [7]; [23]
  Plant response rating, Pigweed, Palmer: 90
pigweed, palmer [7]; [24]
  Plant response rating, Pigweed, Palmer: 100
Ragweed [8]; [23]
  Plant response rating, Ragweed: 0
Ragweed [8]; [24]
  Plant response rating, Ragweed: 40
ryegrass, Italian [9]; [23]
  Plant response rating, Ryegrass, Italian: 50
ryegrass, Italian [9]; [24]
  Plant response rating, Ryegrass, Italian: 90
Soybean [10]; [23]
  Plant response rating, Soybean: 60
Soybean [10]; [24]
  Plant response rating, Soybean: 90
Wheat [11]; [23]
  Plant response rating, Wheat: 0
Wheat [11]; [24]
  Plant response rating, Wheat: 0
Blackgrass [12]; [25]
  Blackgrass plant response rating: 0
Blackgrass [12]; [26]
  Plant response rating, Blackgrass: 50
Corn [13]; [25]
  Corn plant response rating: 40
Corn [13]; [26]
  Plant response rating, Corn: 80
foxtail, giant [14]; [25]
  Foxtail, Giant plant response rating: 90
foxtail, giant [14]; [26]
  Plant response rating, Foxtail, Giant: 90
Goosegrass [15]; [25]
  Goosegrass plant response rating: 50
Goosegrass [15]; [26]
  Plant response rating, Goosegrass: 80
Kochia [16]; [25]
  Kochia plant response rating: 80
Kochia [16]; [26]
  Plant response rating, Kochia: 100
oat, wild [17]; [25]
  Oat, Wild plant response rating: 20
oat, wild [17]; [26]
  Plant response rating, Oat, Wild: 40
pigweed, palmer [18]; [25]
  Pigweed, Palmer plant response rating: 80
pigweed, palmer [18]; [26]
  Plant response rating, Pigweed, Palmer: 100
Ragweed [19]; [25]
  Ragweed plant response rating: 0
Ragweed [19]; [26]
  Plant response rating, Ragweed: 30
ryegrass, Italian [20]; [25]
  Ryegrass, Italian plant response rating: 30
ryegrass, Italian [20]; [26]
  Plant response rating, Ryegrass, Italian: 60
Soybean [21]; [25]
  Soybean plant response rating: 100
Soybean [21]; [26]
  Plant response rating, Soybean: 100
Wheat [22]; [25]
  Wheat plant response rating: 10
Wheat [22]; [26]
  Plant response rating, Wheat: 10
galium; [25]
  Galium plant response rating: 60
galium; [26]
  Plant response rating, Galium: 100
horseweed; [25]
  Horseweed plant response rating: 0
horseweed; [26]
  Plant response rating, Horseweed: 0
barnyardgrass
  Plant response rating, Barnyardgrass: 60
ducksalad
  Plant response rating, Ducksalad: 25
rice
  Plant response rating, Rice: 20
sedge, umbrella
  Plant response rating, Sedge, Umbrella: 98
